The source of these data is publication PMC2867052 (Journal of contaminant hydrology, 2009).

SMILES strings stand for the structures. Where two headings read alike, the source gives them in different places.

The format of series [1] is physicochemical. As to conditions: for Sherwood Number (Sh): calculated from initial dissolution rate coefficient; for Dissolution Rate Coeff. (kL): model-calibrated initial value.
The format of series [2] is physicochemical. To be noted: for Dissolution Rate Coeff. (kL): model-calibrated initial value.
The conditions of series [3]: 10% by weight HPCD.
Where [4] appears, read: 1 Component - HPCD (10% by weight).
Where [5] appears, read: 3 Component - HPCD (10% by weight).
Setting [6] is: single-component organic liquid.

On to `CCc1ccccc1` [ethylbenzene], for which the “E-Normalized Rate Coeff. (kL/E)” value was 17 ± 3 h⁻¹ in series [1] (3 Component - Water), 17 ± 3 h⁻¹ in series [2] (1 Component - HPCD) and 18 ± 3 h⁻¹ in series [2] (3 Component - HPCD). In addition, the “Sherwood Number (Sh)” value in series [1] (3 Component - Water) was 0.6; in series [2] (setting [4]), 15; in series [2] (setting [5]), 14. Also, the “Dissolution Rate Coeff. (kL)” value in series [1] (3 Component - Water) was found to be 17 ± 3 h⁻¹; in series [2] (setting [4]), 342 ± 57 h⁻¹; in series [2] (setting [5]), 341 ± 57 h⁻¹. For the same compound, the “10% HPCD Enhancement Factor (E°)” value in series [3] (setting [6]) is given as 20; in series [3] (three-component organic liquid (Tol-EB-BB)), 19.
Take `Cc1ccccc1` [toluene, Toluene]: the “E-Normalized Rate Coeff. (kL/E)” value in series [1] (1 Component - Water) was found to be 22 ± 5 h⁻¹; in series [1] (3 Component - Water), 21 ± 4 h⁻¹; in series [2] (1 Component - HPCD), 21 ± 6 h⁻¹; in series [2] (3 Component - HPCD) it was 21 ± 4 h⁻¹. In addition, the “Dissolution Rate Coeff. (kL)” value in series [1] (3 Component - Water) was 21 ± 4 h⁻¹; in series [2] (setting [4]) it was 161 ± 44 h⁻¹; in series [2] (setting [5]), 165 ± 30 h⁻¹. Besides, the “Sherwood Number (Sh)” value in series [2] (setting [4]) and in series [2] (setting [5]) was 6 each time. In addition, the “10% HPCD Enhancement Factor (E°)” value in series [3] (setting [6]) came out at 7.7.
Regarding `CCCCc1ccccc1` [butylbenzene], the “E-Normalized Rate Coeff. (kL/E)” value worked out at 15 ± 11 h⁻¹ in series [1] (3 Component - Water), 16 ± 2 h⁻¹ in series [2] (1 Component - HPCD) and 15 ± 4 h⁻¹ in series [2] (3 Component - HPCD). Besides, the “Sherwood Number (Sh)” value in series [1] (3 Component - Water) is reported as 0.6; in series [2] (setting [4]), 100; in series [2] (setting [5]) it was 82. Also, the “Dissolution Rate Coeff. (kL)” value in series [1] (3 Component - Water) worked out at 15 ± 11 h⁻¹; in series [2] (setting [4]), 1902 ± 240 h⁻¹; in series [2] (setting [5]), 1900 ± 490 h⁻¹.
